Data on 1 compound can be found in patent publication US12201694B2, “Hydrogel compositions” (Hyderabad Eye Institute, priority 2018, dated 2025).

The test system of data set [1] is F. keratoplasticum ATCC36031. The data set is described as follows: Minimal inhibitory concentration (MIC). It is filed as cell-based, Fusarium keratoplasticum. The note with it: F. keratoplasticum ATCC 36031. Here is the method:
(§1) C. albicans cells, laboratory strain SC5314 or ATCC90028, were cultured on solid BHI (Oxoid) medium at 37° C. for 24 hours and stored at 4° C. for up to one month. Prior to experiments, a colony of C. albicans was sub-cultured into liquid BHI medium overnight at 37° C. Overnight cultures of C.albicans were adjusted to an optical density at 600 nm of 0.1 and incubated with Amphotericin polymers, which were serially diluted 1:2 from 2500-2.44 μg/ml, for 16 hours in a 96 well plate. The concentration of polymer at which there was no visible growth was determined to be the MIC. C.albicans (Robin) ATCC200955, C.tropicalis ATCC200956, A.flavus ATCC16883 and F. keratoplasticum ATCC36031 were similarly cultured on solid Sabrauds (Oxoid) medium at 37° C. for 24 hours and stored at 4° C. for up to one month. Prior to experiments, colonies were sub-cultured into liquid Sabrauds medium overnight at 37° C. All liquid cultures were static apart from A.flavus which was incubated shaking at 100 rpm.

A further data set has as its system C. tropicalis ATCC200956. Nature of the data set: Minimal inhibitory concentration (MIC). It is filed as cell-based, Candida tropicalis. Conditions: C. tropicalis ATCC200956 (Amp-B non-sensitive). Here is the method: as §1, with “Overnight cultures of C.albicans were adjusted to an optical density at 600 nm of 0.1 and incubated with Amphotericin polymers, which were serially diluted 1:2 from 2500-2.44 μg/ml, for 16 hours in a 96 well plate.” left out

For data set [2] the following is noted: literature reference [19]; cited from earlier work.
The subject of a further data set is A. flavus ATCC16883. Nature of the data set: Minimal inhibitory concentration (MIC). It is filed as cell-based, Aspergillus flavus. The note with it: A. flavus ATCC 16883. The protocol: as §1
Another data set relates to C. albicans ATCC90028. Nature of the data set: Minimal inhibitory concentration (MIC), no visible growth after 16 h. It is filed as cell-based, Candida albicans. Here is the method: as §1
A further data set deals with C. albicans SC5314. The description is as above. It is filed as cell-based, Candida albicans. The protocol:
as §1

The conditions of data set [3]: physiological pH; well known; cited from earlier work.
For the next data set, the system named is C. albicans ATCC200955. Nature of the data set: Minimal inhibitory concentration (MIC). Conditions: C. albicans ATCC200955 (Amp-B non-sensitive). It is filed as cell-based, Candida albicans. The protocol:
as §1

Setting [4] is: from weight MIC and molar density.

The structures appear in SMILES notation. In brackets after ≈: the same amount, converted by molar mass.

Turning to `C[C@@H]1[C@H](O)[C@@H](C)/C=C/C=C/C=C/C=C/C=C/C=C/C=C/[C@H](O[C@@H]2O[C@H](C)[C@@H](O)[C@H](N)[C@@H]2O)C[C@@H]2O[C@](O)(C[C@@H](O)C[C@@H](O)[C@H](O)CC[C@@H](O)C[C@@H](O)CC(=O)O[C@H]1C)C[C@H](O)[C@H]2C(=O)O` [Amphotericin B], the “Weight based MIC” value in data set [1] was 0.2 µg·mL; in the data set with C. tropicalis ATCC200956, above 2500 µg·mL; in the data set on A. flavus ATCC16883 it was 1.5 µg·mL; with C. albicans ATCC90028 (C. albicans ATCC90028), 0.5 µg·mL; in the data set on C. albicans SC5314 (C. albicans SC5314), 0.4 µg·mL; with C. albicans ATCC200955 it was above 2500 µg·mL. The “Molar MIC” value in data set [1] (setting [4]) came to 250 µM; with A. flavus ATCC16883 (setting [4]) it was 1800 µM; with C. albicans ATCC90028 (C. albicans ATCC90028, from weight MIC and molar density), 4800 µM; with C. albicans SC5314 (C. albicans SC5314, from weight MIC and molar density), 500 µM. For the same compound, the “MIC for amphotericin B” value in data set [2] is 4.68 to 150 µM. Besides, in the data set with C. albicans ATCC90028 (C. albicans ATCC90028, 16 hours), the “MIC against ATCC90028” value turned out to be 4 µg/mL (≈ 4.33 µM). In addition, in the data set on C. albicans SC5314 (C. albicans SC5314, 16 hours), the “MIC against SC5314” value was 0.4 µg/mL (≈ 0.433 µM). Also, in data set [3], the “solubility in water and saline solution” value was “insoluble”.
